Source: patent publication US9469878B2, “Methods of treating cancer comprising targeting NQO1” (The Board of Regents of the University of Texas System, priority 2010, dated 2016)

Experiments:
Calu-3/NSCLC = assay: β-lapachone lethality in NQO1 genotyped cancer cells; type: cell-based, human
Method: (§1) Cell lines, mostly from a 5-panel nonsmall cell lung cancer panel from the UT Southwestern SPORE, were assessed for NQO1 polymorphism status and then monitored for NQO1 enzyme assays using β-lapachone or the standard menadione substrates. Cell line responses to β-lapachone exposures (μM, 2 h) were then assessed and lethal doses causing 50% lethality with or without dicoumarol (40 μM) co-treatments were recorded. NQO1*2/*2 and *3/*3 polymorphisms were detected from NQO1 *1/*1 wild-type sequences by PCR-RFLP. Genomic DNA was extracted from the cells using Qiagen spin columns. Using previously described oligonucleotide primers, PCR products underwent gel electrophoresis. Final genotyping was determined based on the size and pattern of separated bands diagnostic for *1/*1 (wild-type), or polymorphic *2/*2 or *3/*3 NQO1 polymorphisms.

H1648 = assay: as above; type: cell-based, human
Method: as §1

H1993 = assay: as above; type: cell-based, human
Method: as §1

H2009/NSCLC = assay: as above; type: cell-based, human
Method: as §1

H2073 = assay: as above; type: cell-based, human
Method: as §1

H292 = assay: as above; type: cell-based, human
Method: as §1

H322 = assay: as above; type: cell-based, human
Method: as §1

HCC1171/NSCLC = assay: as above; type: cell-based, human
Method: as §1

HCC2935 = assay: as above; type: cell-based, human
Method: as §1

HCC366/NSCLC = assay: as above; type: cell-based, human
Method: as §1

HCC44 = assay: as above; type: cell-based, human
Method: as §1

MDA-MB-231/Breast = assay: as above; type: cell-based, human
Method: as §1

MDA-MB-468/Breast = assay: as above; type: cell-based, human
Method: as §1

T47D/BreastCancer = assay: as above; type: cell-based, human
Method: as §1

PARP-1 in PC-3 cells = assay: PAR formation (PARP-1 hyperactivation), Western blot; type: cell-based, human
Method: Whole-cell extracts were prepared, proteins separated by SDSPAGE, and Western blots developed using SuperSignal® West Pico Chemiluminescent substrate (Thermo Scientific, Rockford, Ill.), and exposed using Autoradiography Film (Denville Scientific Inc., Metuchen, N.J.). Both PAR (BD Pharmingen, San Jose, Calif.) and γH2AX (Upstate, Billerica, Mass.) antibodies were used at 1:2000 and 1:1000 dilutions, respectively. […] or α-tubulin levels were used as loading control.

[1] = test system: NQO1-deficient LNCaP cells; assay: Relative survival assay; type: cell-based, human
Method: Relative DNA cell survival assays were assessed after various treatments. […] Cells were then mock-treated or treated with various doses of β-lap (for 2 h) in the presence or absence of dicoumoral as indicated. Drug-free medium was then added and cells allowed to grow for 5-7 days until control cells reached ˜100% confluence. […] Results were reported as means±SE from at least three independent experiments.

NQO1 = NQO1 (Homo sapiens, UniProt P15559); assay: NQO1 enzyme assays using β-lapachone or the standard menadione substrates; type: biochemical; parameters: S9 Supernatants were prepared from cells in mid-log to late log phase growth; endogenous in cells; host or cells: cancer cell lines, mostly from a non-small cell lung cancer panel; S9 supernatants; conditions: β-lapachone as substrate, H1993 *1/*1
Chain of NQO1 (P15559 whole entry): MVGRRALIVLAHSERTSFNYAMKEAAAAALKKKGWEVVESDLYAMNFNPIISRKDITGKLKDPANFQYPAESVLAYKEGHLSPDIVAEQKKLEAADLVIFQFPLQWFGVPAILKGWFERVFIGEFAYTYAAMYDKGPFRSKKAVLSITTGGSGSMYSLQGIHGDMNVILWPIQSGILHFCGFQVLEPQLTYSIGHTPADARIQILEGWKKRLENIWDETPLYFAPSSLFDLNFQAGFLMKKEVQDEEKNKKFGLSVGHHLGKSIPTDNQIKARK
Method: S9 Supernatants were prepared from cells in mid-log to late log phase growth. […] The cell suspensions were sonicated on ice four times, using 10-s pulses, and then centrifuged at 14,000×g for 20 min. The S9 supernatants were aliquoted into microcentrifuge tubes and stored at −80° C. until used. A 1× protease inhibitor cocktail was added to prevent enzyme activity degradation. […] Menadione was used as the electron acceptor. NADH was used as the electron donor.
NQO1 activity was measured using NADH (200 μM) as the immediate electron donor and menadione (10 μM) as the intermediate electron acceptor. […] Biochem. Biophys. […] NADH: cytochrome b5 reductase was measured using NADH (200 μM) as the electron donor, and […] was measured using NADPH (200 μM) as electron donor (45) in a Beckman DU 640 spectrophotometer (Beckman Coulter, Fullerton, Calif.). Reactions were carried out at 37° C. and were initiated by the addition of S9 supernatants. Varying amounts of supernatants, from 10 to 40 μL, were used to ensure linearity of rates with protein concentration. […] Results shown are the average enzyme activity for three separate cell extractions±S.D. or both values from duplicate experiments.
as §1, with “Cell line responses to β-lapachone exposures (μM, 2 h) were then assessed and lethal doses causing 50% lethality with or without dicoumarol (40 μM) co-treatments were recorded.” left out

[2] = *3/*3, 2 h, + dicoumarol (40 μM)
[3] = NQO1 genotype *3/*3, 2 h exposure
[4] = *2/*2, 2 h, + dicoumarol (40 μM)
[5] = NQO1 genotype *2/*2, 2 h exposure

For `CC1(C)CCC2=C(O1)c1ccccc1C(=O)C2=O` [β-Lap, 3,4-dihydro-2,2-dimethyl-2H-naphtho[1,2-b]pyran-5,6-dione], the “LD50 + DIC” value (Calu-3/NSCLC; [2]) was 3 µM, the “β-Lap Lethality LD50” value (Calu-3/NSCLC; [3]) was 2.4 µM and the “LD50 + DIC” value (H1648; H1648, *1/*1, 2 h, + dicoumarol (40 μM)) was greater than 20 µM. The “β-Lap Lethality LD50” value (H1648; H1648, NQO1 genotype *1/*1, 2 h exposure) was 4.1 µM, the “LD50 + DIC” value (H1993; H1993, *1/*1, 2 h, + dicoumarol (40 μM)) was greater than 10 µM and the “β-Lap Lethality LD50” value (H1993; H1993, NQO1 genotype *1/*1, 2 h exposure) was 1.8 µM. For the same compound, the “LD50 + DIC” value (H2009/NSCLC; [2]) was 5.4 µM, the “β-Lap Lethality LD50” value (H2009/NSCLC; [3]) was 4.3 µM and the “LD50 + DIC” value (H2073; H2073, *1/*1, 2 h, + dicoumarol (40 μM)) was greater than 10 µM. The “β-Lap Lethality LD50” value (H2073; H2073, NQO1 genotype *1/*1, 2 h exposure) was 1.8 µM, the “LD50 + DIC” value (H292; H292, *1/*2, 2 h, + dicoumarol (40 μM)) was greater than 10 µM and the “β-Lap Lethality LD50” value (H292; H292, NQO1 genotype *1/*2, 2 h exposure) was 1.8 µM. For the same compound, the “LD50 + DIC” value (H322; H322, *1/*1, 2 h, + dicoumarol (40 μM)) was greater than 20 µM, the “β-Lap Lethality LD50” value (H322; H322, NQO1 genotype *1/*1, 2 h exposure) was 5.7 µM and the “LD50 + DIC” value (HCC1171/NSCLC; [2]) was 2 µM. The “β-Lap Lethality LD50” value (HCC1171/NSCLC; [3]) was 3 µM, the “LD50 + DIC” value (HCC2935; HCC2935, *1/*3, 2 h, + dicoumarol (40 μM)) was greater than 10 µM and the “β-Lap Lethality LD50” value (HCC2935; HCC2935, NQO1 genotype *1/*3, 2 h exposure) was 1.0 µM. The “LD50 + DIC” value (HCC366/NSCLC; [4]) was greater than 10 µM, the “β-Lap Lethality LD50” value (HCC366/NSCLC; [5]) was greater than 10 µM and the “LD50 + DIC” value (HCC44; HCC44, *1/*2, 2 h, + dicoumarol (40 μM)) was greater than 10 µM. The “β-Lap Lethality LD50” value (HCC44; HCC44, NQO1 genotype *1/*2, 2 h exposure) was 2.8 µM, the “LD50 + DIC” value (MDA-MB-231/Breast; [4]) was greater than 10 µM and the “β-Lap Lethality LD50” value (MDA-MB-231/Breast; [5]) was greater than 10 µM. The “LD50 + DIC” value (MDA-MB-468/Breast; [4]) was greater than 10 µM, the “β-Lap Lethality LD50” value (MDA-MB-468/Breast; [5]) was greater than 10 µM and the “LD50 + DIC” value (T47D/BreastCancer; [2]) was 4 µM. The “β-Lap Lethality LD50” value (T47D/BreastCancer; [3]) was 4 µM, the “PAR formation after combined treatment” value (PARP-1 in PC-3 cells; 1 Gy+3 μM β-lap, PC-3 cells, at 60 mins, no apparent levels after each agent alone) was “dramatic PAR formation” and the “Time to significant accumulation of PAR” value (PARP-1 in PC-3 cells; β-lap-exposed PC-3 cells, blocked by dicoumarol) was 10 to 20 min. For the same compound, the “Response to β-lap” value [1] was “not responsive” and the “NQO1 activity, β-Lap” value (NQO1) was 1940 ± 12 nmol/min/µg.
